Laboratory results as given in publication PMC9572083, “Hybrids of 1,4-Quinone with Quinoline Derivatives: Synthesis, Biological Activity, and Molecular Docking with DT-Diaphorase (NQO1)” (Molecules, 2022).

Columns and labels:
T47D cells = experiment: Cytotoxic activity, WST-1 assay, breast cancer T47D; format: cell-based, human; conditions: for IC50: Homo sapiens, breast cancer T47D, 72 h, WST-1; for SI (IC50 HFF-1/IC50 cancer line) T47D: HFF-1 vs T47D
From the text: (§1) Anticancer activity of compounds 11–14 was designated against following human cancer cell lines: melanoma (Colo-829), ovarian cancer (SK-OV-3), breast cancer (MDA-MB-231, T47D and MCF-7), lung cancer (A549) and normal fibroblasts (HFF-1). As a reference substance, the doxorubicin was used. The results are presented in Table 1 as IC50, where IC50 means the concentration of tested compounds (µM) causing the growth inhibition of 50% for given tumor cells. The negative value (Neg.) means that the IC50 is higher than 30 µM. Selectivity index (SI) as the ratio of the IC50 for normal fibroblast (HFF-1) to IC50 of the corresponding cell line, is presented in Table S2.
(§2) Compounds 7–14 and doxorubicin were tested for cytotoxic activity in vitro against panel of human cancer cell lines: melanoma (Colo-829, ATCC, Rockville, MD, USA), ovarian cancer (SK-OV-3, ATCC, Rockville, MD, USA), breast cancer (T47D, MCF-7, and MDA-MB-231, ATCC, Rockville, MD, USA) and lung cancer (A549, ATCC, Rockville, MD, USA). The cultured cells were kept at 37 °C and 5% CO2. The cells were seeded (5 × 10^4 cells/well/[…] DMEM supplemented with 10% FCS and streptomycin/penicillin) using 96-well plates (Nunc Thermo Fisher Scientific, Waltham, MA, USA). The tested compounds 7–14 with the concentration of 1–100 µg/mL DMSO were inducted with the cancer cells for 72 h. The WST-1-formazan (proliferation reagent WST-1 assay, Roche Diagnostics, Mannheim, Germany) was detected using a microplate reader at 450 nm. Results were expressed as a mean value of at least three independent experiments performed in triplicate.

Colo-829 cells = experiment: Cytotoxic activity, WST-1 assay, melanoma Colo-829; format: cell-based, human; conditions: for SI (IC50 HFF-1/IC50 cancer line) Colo-829: HFF-1 vs Colo-829; for IC50: Homo sapiens, melanoma Colo-829, 72 h, WST-1
From the text: as §1, §2

[1] = molecular target: T1, NQO1 (DT-diaphorase, EC 1.6.5.5, human recombinant) (Homo sapiens, UniProt P15559); experiment: NQO1 substrate NADPH recycling enzymatic assay; format: biochemical; conditions: compound 10 µmol/L, pH 7.4, 25 °C, absorbance at 340 nm
T1 construct: purchased Sigma-Aldrich
Description: The interaction between 1,4-quinone moiety of hybrid and NQO1 protein leads to reduction in quinone to hydroquinone and production of reactive oxide form (ROS). According to a literature method, the ability of hybrids 11–14 and streptonigrin (ST) to be a substrate for NQO1 was examined by measuring the oxidation of NADPH to NADP^+ [29, 32].
Compounds 11–14 (10 µmol/L) were tested as NQO1 substrates using the NADPH recycling assay according to the literature method. The recombinant NQO1 (DT-diaphorase, EC 1.6.5.5, human recombinant, Sigma-Aldrich) was used, and the oxidation of NADPH to NADP^+ was measured at the absorption wavelength of 340 nm on the BioTek 800TS microplate reader (BioKom, Janki, Poland). Compounds were dissolved in dimethyl sulfoxide (2 µL) and added to the 96-well plate. The NQO1 protein (1.4 µg/mL) in 50 mmol/L potassium phosphate buffer (pH = 7.4) was added to each well (198 µL) (Nunc Thermo Fisher Scientific, Waltham, MA, USA). Once the 96-well plate was filled with the assay solutions, except the NADPH solution, it was placed into the instrument and left to sit for 5 min before starting the measurements. The enzymatic reaction was initiated by automatically dispensing the NADPH solution into the wells, and data were recorded at 10 s intervals for 5 min at 25 °C. The linear part of the absorbance vs. time graphs (the first 20 s to 1 min) was fitted, and the slopes were calculated. NADPH oxidation rates were compared with reactions lacking the tested compound. Initial velocities were calculated, and data were expressed as µmol NADPH/µmol NQO1/min. All reactions were carried out at least in triplicate.

HFF-1 cells = experiment: Cytotoxic activity, WST-1 assay, normal fibroblasts HFF-1; format: cell-based; conditions: Homo sapiens, normal fibroblasts HFF-1, 72 h
From the text: as §1, §2

SK-OV-3 cells = experiment: Cytotoxic activity, WST-1 assay, ovarian cancer SK-OV-3; format: cell-based, human; conditions: for SI (IC50 HFF-1/IC50 cancer line) SK-OV-3: HFF-1 vs SK-OV-3; for IC50: Homo sapiens, ovarian cancer SK-OV-3, 72 h, WST-1
From the text: as §1, §2

MDA-MB-231 cells = experiment: Cytotoxic activity, WST-1 assay, breast cancer MDA-MB-231; format: cell-based, human; conditions: for SI (IC50 HFF-1/IC50 cancer line) MDA-MB-231: HFF-1 vs MDA-MB-231; for IC50: Homo sapiens, breast cancer MDA-MB-231, 72 h, WST-1
From the text: as §1, §2

A549 cells = experiment: Cytotoxic activity, WST-1 assay, lung cancer A549; format: cell-based, human; conditions: for SI (IC50 HFF-1/IC50 cancer line) A549: HFF-1 vs A549; for IC50: Homo sapiens, lung cancer A549, 72 h, WST-1
From the text: as §1, §2

MCF-7 cells = experiment: Cytotoxic activity, WST-1 assay, breast cancer MCF-7; format: cell-based, human; conditions: for SI (IC50 HFF-1/IC50 cancer line) MCF-7: HFF-1 vs MCF-7; for IC50: Homo sapiens, MCF7, breast cancer MCF-7, 72 h, WST-1
From the text: as §1, §2

T1 sequence (P15559 whole entry): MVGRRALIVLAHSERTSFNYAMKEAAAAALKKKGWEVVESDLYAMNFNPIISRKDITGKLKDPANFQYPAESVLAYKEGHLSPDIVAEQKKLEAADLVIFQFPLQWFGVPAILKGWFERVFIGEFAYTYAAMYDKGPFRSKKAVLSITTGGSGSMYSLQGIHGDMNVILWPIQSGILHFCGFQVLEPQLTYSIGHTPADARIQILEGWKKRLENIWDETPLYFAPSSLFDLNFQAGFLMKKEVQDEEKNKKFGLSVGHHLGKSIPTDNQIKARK

Row | Structure (SMILES) | IC50 (T47D cells) [µM] | melting point [°C] | SI (IC50 HFF-1/IC50 cancer line) Colo-829 (Colo-829 cells) | IC50 (Colo-829 cells) [µM] | NQO1 activity (enzymatic conversion rate) [1] [µmol NADPH/µmol NQO1/min] | IC50 (HFF-1 cells) [µM] | SI (IC50 HFF-1/IC50 cancer line) SK-OV-3 (SK-OV-3 cells) | IC50 (SK-OV-3 cells) [µM] | SI (IC50 HFF-1/IC50 cancer line) MDA-MB-231 (MDA-MB-231 cells) | IC50 (MDA-MB-231 cells) [µM] | SI (IC50 HFF-1/IC50 cancer line) A549 (A549 cells) | IC50 (A549 cells) [µM] | SI (IC50 HFF-1/IC50 cancer line) MCF-7 (MCF-7 cells) | IC50 (MCF-7 cells) [µM] | SI (IC50 HFF-1/IC50 cancer line) T47D (T47D cells)
1 | O=C1C(Cl)=C(Oc2cccc3ccc(Cl)nc23)C(=O)c2cnccc21 [Compound 13d, 6-chloro-7-[(2-chloroquinolin-8-yl)oxy]isoquinoline-5,8-dione] | > 30 | 127 to 129 | 5.66 | 1.96 ± 0.08 | 633 ± 32 | 11.1 ± 1.07 | 0.65 | 17.1 ± 1.76 | 6.64 | 1.67 ± 0.11 | 184.83 | 0.06 ± 0.01 | 6.34 | 1.75 ± 0.19 | –
2 | O=C1C(Cl)=C(Oc2cccc3cccnc23)C(=O)c2ccccc21 [Compound 14a, 2-chloro-3[(quinolin-8-yl)oxy]naphthalene-1,4-dione] | > 30 | 115 to 117 | 0.84 | 15.3 ± 2.56 | 1282 ± 29 | 12.8 ± 0.85 | 7.54 | 1.7 ± 0.29 | 0.84 | 15.2 ± 0.85 | 19.71 | 0.65 ± 0.07 | 0.91 | 14.1 ± 0.98 | –
3 | O=Cc1ccc2cccc(OC3=C(Cl)C(=O)c4cccnc4C3=O)c2n1 [Compound 11c, 8-[(6-chloro-5,8-dioxo-5,8-dihydroquinolin-7-yl)oxy]quinoline-2-carbaldehyde] | 22.2 ± 0.66 | 168 to 170 | 0.90 | 11.7 ± 1.36 | 1100 ± 35 | 10.5 ± 0.87 | 5.91 | 1.78 ± 0.31 | 0.73 | 14.3 ± 2.01 | 7.26 | 1.45 ± 0.13 | 0.57 | 18.3 ± 1.23 | 0.47
4 | O=C1C(Cl)=C(Oc2cccc3ccc(N4CCCC4)nc23)C(=O)c2ccccc21 [Compound 14e, 2-chloro-3-{[2-(pyrrolidin-1-yl)quinolin-8-yl]oxy}naphthalene-1,4-dione] | > 30 | – | 0.85 | 22 ± 0.6 | 354 ± 22 | 18.7 ± 1.36 | 1.17 | 15.9 ± 0.22 | 2.43 | 7.66 ± 1.12 | 0.84 | 22.1 ± 0.89 | 0.78 | 24.05 ± 0.21 | –
5 | Cc1ccc2c(n1)C(=O)C(Oc1cccc3ccc(N4CCCC4)nc13)=C(Cl)C2=O [Compound 12e, 6-chloro-2-methyl-7-{[2-(pyrrolidin-1-yl)quinolin-8-yl]oxy}quinoline-5,8-dione] | 17.4 ± 1.3 | – | 11.48 | 1.53 ± 0.08 | 600 ± 35 | 17.6 ± 1.05 | 16.72 | 1.05 ± 0.06 | 11.71 | 1.5 ± 0.15 | 1.16 | 15.1 ± 0.39 | 9.29 | 1.89 ± 0.23 | 1.01
6 | O=C1C(Cl)=C(Oc2cccc3ccc(N4CCOCC4)nc23)C(=O)c2ccccc21 [Compound 14f, 2-chloro-3-{[2-(morpholin-4-yl)quinolin-8-yl]oxy}naphthalene-1,4-dione] | > 30 | – | – | 11.3 ± 1.97 | 87 ± 15 | 20.3 ± 0.87 | – | 14.2 ± 0.76 | – | 2.35 ± 0.09 | – | 14 ± 0.86 | – | 17.4 ± 1.02 | –
7 | O=C1C(Cl)=C(Oc2cccc3ccc(N4CCCC4)nc23)C(=O)c2cnccc21 [Compound 13e, 6-chloro-7-{[2-(pyrrolidin-1-yl)quinolin-8-yl]oxy}isoquinoline-5,8-dione] | > 30 | – | 0.79 | 19.6 ± 1.32 | 214 ± 21 | 15.5 ± 0.72 | 0.98 | 15.8 ± 0.26 | 0.93 | 16.6 ± 0.38 | 1.11 | 14 ± 0.26 | 0.92 | 16.9 ± 0.5 | –
8 | Cc1ccc2c(n1)C(=O)C(Oc1cccc3ccc(N4CCOCC4)nc13)=C(Cl)C2=O [Compound 12f, 6-chloro-2-methyl-7-{[2-(morpholin-4-yl)quinolin-8-yl]oxy}quinoline-5,8-dione] | 17.3 ± 0.26 | – | 1.49 | 13.3 ± 0.21 | 210 ± 20 | 19.9 ± 0.93 | 1.48 | 13.5 ± 0.21 | 1.95 | 10.2 ± 0.28 | 1.72 | 11.6 ± 0.72 | 1.41 | 14.1 ± 0.67 | 1.15
